The values below come from patent US10758569B2, “Heteroaryl disulfide compounds as allosteric effectors for increasing the oxygen-binding affinity of hemoglobin” (The General Hospital Corporation, priority 2014, dated 2020).

For one test, the system named is red blood cells. The experiment in a line: ODC of washed red blood cells in Hemox solution. The format is cell-based, human. The settings on record: for P50 of red blood cells: mixed 1 h at 37° C. From the text:
For the reduction of P50, less amount of 1 was needed, and the reaction time of 1 with hemoglobin was faster than NEM and 5HMF.

Test [1] deals with red blood cells from sickle cell disease patients (SRBCs). The following applies: reported value; cited from earlier work.
The test system of the next test is whole blood. The test can be described thus: ODC (P50) of whole blood. The settings on record: 6:1 molar ratio of compound to hemoglobin (120 μM).
Another test has as its target T1, hemoglobin (Homo sapiens, UniProt P68871+P69905).
T1 construct: from tissue; host or cells: outdated donated human red blood cells (hemolysate supernatant, dialysed against DPBS)
The experiment in a line: Hemoglobin oxygen-binding assay (oxyHb %, plate format). The settings on record: effector to hemoglobin tetramer 6 to 1 (mol/mol). It is filed as biochemical. As to the method: Test compounds (0.75 μL, 10 mM in DMSO) were added to the central area of two 384 deep well plates forming compound plates. DPBS was used as the solvent for myo-inositol hexaphosphate (IHP) and N-ethylmaleimide (NEM) (10 mM). To prevent oxidation of hemoglobin during the experiment, glucose-6-phosphate (0.4 mg/mL), glucose-6-phosphate dehydrogenase (1.0 U/mL), nicotinamide adenine dinucleotide phosphate (NADP, 0.05 mg/mL), ferredoxin (0.01 mg/mL), ferredoxin-NADP reductase (0.01 U/mL) and catalase (2×10^3 U/mL) were added to hemoglobin to produce the Hayashi reducing system, which is described in detail in Hayashi et al., Biochemica et Biophysica Acta, 1973, 310, 309-316. […]
The alteration of hemoglobin's oxygen-binding affinity by the test compounds binding to hemoglobin was evaluated in an environment where the fractional oxygen pressure (FO2) could be precisely measured and controlled. […] To confirm the allosteric effect of the test compounds, ODC of hemoglobin was measured in the presence and absence of each compound. […]
The ability of small molecules to alter the oxygen affinity of hemoglobin was determined by measuring the fraction of oxygenated hemoglobin (oxyHb %) and oxidized hemoglobin (metHb %) using spectrophotometry under three (high, medium, and low oxyHb saturation) conditions. […]

T1 sequence (P68871 2-147 limits assumed): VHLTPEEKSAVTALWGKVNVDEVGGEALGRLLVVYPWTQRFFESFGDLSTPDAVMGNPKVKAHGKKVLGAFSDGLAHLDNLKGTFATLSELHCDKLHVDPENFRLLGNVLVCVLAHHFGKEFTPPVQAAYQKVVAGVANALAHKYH
T1 sequence (P69905 2-142 limits assumed): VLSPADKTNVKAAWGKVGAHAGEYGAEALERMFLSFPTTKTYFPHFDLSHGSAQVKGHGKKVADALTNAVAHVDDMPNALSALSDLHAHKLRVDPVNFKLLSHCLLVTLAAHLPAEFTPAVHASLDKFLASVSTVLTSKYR
Protocol for whole blood: The ODC of hemoglobin was measured with a HEMOX analyzer (TCS Scientific Corporation) at 37° C. For experiments with purified hemoglobin, hemoglobin (20 μM as tetramer) was dissolved in DPBS and antifoam (0.2 vol %, Catalog No. AFA-25, TCS Scientific Corporation) was added to prevent foaming of the sample. Compounds were prepared in DMSO stock solutions then added to hemoglobin. […] For experiments with RBCs, blood was drawn from volunteers into EDTA tubes. The blood was centrifuged for 15 min at 3,000 rpm at 4° C. The supernatant was discarded, and RBCs were washed three times with DPBS, pH 7.4 by dilution to 50% hematocrit.

As to `O=Cc1ccc(CO)o1` [Compound 5-HMF, 5-(Hydroxymethyl)furfural], the “P50 of red blood cells” value with red blood cells (2 mM) is on record as 9 Torr. Further, the “P50 of RBCs” value in the test with red blood cells (Compound 1 at 120 μM (6:1 to Hb tetramer), HEMOX solution, 5 vol % DMSO, 10 min at 37° C.) amounted to 27±0.5 Torr. Moreover, in test [1], the “concentration required to reduce sickling of hypoxic SS RBCs by nearly 90%” value is 5 mM. Further, the “P50 of whole blood” value with whole blood stood at 26±0.5 Torr.
As to `CCN1C(=O)C=CC1=O` [NEM, N-ethylmaleimide], in the test with red blood cells (400 μM), the “P50 of red blood cells” value is reported as 8 Torr. Further, the “change of oxyHb %” value on hemoglobin was “increase”. Moreover, the “P50 of whole blood” value in the test with whole blood is 20±1.1 Torr.
Consider `O=P(O)(O)O[C@H]1[C@H](OP(=O)(O)O)[C@@H](OP(=O)(O)O)[C@H](OP(=O)(O)O)[C@@H](OP(=O)(O)O)[C@H]1OP(=O)(O)O` [IHP, myo-inositol hexaphosphate], for which the “change of oxyHb %” value at hemoglobin is “decrease”.
